ChEMBL document CHEMBL3046465, “A facile synthesis of new 3,3-disubstituted phthalides of pharmacological interest” (Med Chem Res, 2013)
Converted amounts (≈) assume the structure as drawn.

What was measured:
[1] = system: Staphylococcus aureus; experiment: Antibacterial activity against methicillin-resistant Staphylococcus aureus ATCC 33591 assessed as growth inhibition after 16 to 20 hr by CLSI broth dilution method; type: functional
[2] = system: Mycobacterium intracellulare; experiment: Antibacterial activity against Mycobacterium intracellulare ATCC 23068 assessed as growth inhibition after 70 to 74 hr by Alamar blue assay; type: functional, organism-based
[3] = system: Staphylococcus aureus; experiment: Antibacterial activity against methicillin-resistant Staphylococcus aureus ATCC 33591 assessed as growth inhibition after 16 to 20 hr by Alamar blue assay; type: functional, organism-based
[4] = system: Aspergillus fumigatus; experiment: Antifungal activity against Aspergillus fumigatus ATCC 204305 assessed as growth inhibition after 46 to 50 hr by Alamar blue assay; type: functional, organism-based
[5] = system: Pseudomonas aeruginosa; experiment: Antibacterial activity against Pseudomonas aeruginosa ATCC 27853 assessed as growth inhibition after 16 to 20 hr by CLSI broth dilution method; type: functional
[6] = system: Staphylococcus aureus; experiment: Antibacterial activity against Staphylococcus aureus ATCC 29213 assessed as growth inhibition after 16 to 20 hr by CLSI broth dilution method; type: functional
[7] = system: Pichia kudriavzevii; experiment: Antifungal activity against Pichia kudriavzevii ATCC 6258 assessed as growth inhibition after 46 to 50 hr by optical density measurement
[8] = system: Pichia kudriavzevii; experiment: Antifungal activity against Pichia kudriavzevii ATCC 6258 assessed as growth inhibition after 46 to 50 hr by CLSI broth dilution method; type: functional
[9] = system: Aspergillus fumigatus; experiment: Antifungal activity against Aspergillus fumigatus ATCC 204305 assessed as growth inhibition after 46 to 50 hr by CLSI broth dilution method; type: functional
[10] = system: Candida albicans; experiment: Antifungal activity against Candida albicans ATCC 90028 assessed as growth inhibition after 46 to 50 hr by CLSI broth dilution method; type: functional
[11] = system: Cryptococcus neoformans; experiment: Antifungal activity against Cryptococcus neoformans ATCC 90113 assessed as growth inhibition after 70 to 74 hr by Alamar blue assay; type: functional, organism-based
[12] = system: Cryptococcus neoformans; experiment: Antifungal activity against Cryptococcus neoformans ATCC 90113 assessed as growth inhibition after 70 to 74 hr by CLSI broth dilution method; type: functional
[13] = system: Pseudomonas aeruginosa; experiment: Antibacterial activity against Pseudomonas aeruginosa ATCC 27853 assessed as growth inhibition after 16 to 20 hr by optical density measurement
[14] = system: Escherichia coli; experiment: Antibacterial activity against Escherichia coli ATCC 35218 assessed as growth inhibition after 16 to 20 hr by CLSI broth dilution method; type: functional
[15] = system: Escherichia coli; experiment: Antibacterial activity against Escherichia coli ATCC 35218 assessed as growth inhibition after 16 to 20 hr by optical density method
[16] = system: Candida albicans; experiment: Antifungal activity against Candida albicans ATCC 90028 assessed as growth inhibition after 46 to 50 hr by Alamar blue assay; type: functional, organism-based
[17] = system: Nakaseomyces glabratus; experiment: Antifungal activity against Candida glabrata ATCC 90030 assessed as growth inhibition after 46 to 50 hr by CLSI broth dilution method; type: functional
[18] = system: Nakaseomyces glabratus; experiment: Antifungal activity against Candida glabrata ATCC 90030 assessed as growth inhibition after 46 to 50 hr by optical density measurement
[19] = system: Staphylococcus aureus; experiment: Antibacterial activity against Staphylococcus aureus ATCC 29213 assessed as growth inhibition after 16 to 20 hr by Alamar blue assay; type: functional, organism-based
[20] = system: Mycobacterium intracellulare; experiment: Antibacterial activity against Mycobacterium intracellulare ATCC 23068 assessed as growth inhibition after 70 to 74 hr by CLSI broth dilution method; type: functional
[21] = system: Escherichia coli; experiment: Antibacterial activity against Escherichia coli ATCC 35218 assessed as growth inhibition after 16 to 20 hr by optical density measurement

SMILES	MIC [1]	IC50 [2]	IC50 [3]	IC50 [4]	MIC [5]	MIC [6]	IC50 [7]	MIC [8]	MIC [9]	MIC [10]	IC50 [11]	MIC [12]	IC50 [13]	MIC [14]	IC50 [16]	MIC [17]	IC50 [18]	IC50 [19]	MIC [20]	IC50 [21]	also measured
CC(C)c1ccc(C2(c3ccc(O)c(O)c3O)OC(=O)c3ccccc32)cc1 (configuration not stated)	25 µg/mL (≈ 66.4 µM)	> 200 µg/mL	18.8 µg/mL (≈ 49.9 µM)	> 200 µg/mL	> 200 µg/mL	25 µg/mL (≈ 66.4 µM)	25.5 µg/mL (≈ 67.7 µM)	> 200 µg/mL	> 200 µg/mL	> 200 µg/mL	> 200 µg/mL	> 200 µg/mL	116 µg/mL (≈ 309 µM)	> 200 µg/mL	65 µg/mL (≈ 173 µM)	> 200 µg/mL	17.5 µg/mL (≈ 46.5 µM)	18.4 µg/mL (≈ 49 µM)	> 200 µg/mL		IC50 [15]: 170 µg/mL (≈ 451 µM)
C[C@@H]1[C@H](O)[C@@H](C)/C=C/C=C/C=C/C=C/C=C/C=C/C=C/[C@H](O[C@@H]2O[C@H](C)[C@@H](O)[C@H](N)[C@@H]2O)C[C@@H]2O[C@](O)(C[C@@H](O)C[C@@H](O)[C@H](O)CC[C@@H](O)C[C@@H](O)CC(=O)O[C@H]1C)C[C@H](O)[C@H]2C(=O)O [AMPHOTERICIN B]				0.67 µg/mL (≈ 0.725 µM)			0.56 µg/mL (≈ 0.606 µM)	1.25 µg/mL (≈ 1.35 µM)	1.25 µg/mL (≈ 1.35 µM)	0.52 µg/mL (≈ 0.563 µM)	0.32 µg/mL (≈ 0.346 µM)	0.63 µg/mL (≈ 0.682 µM)			0.2 µg/mL (≈ 0.216 µM)	0.63 µg/mL (≈ 0.682 µM)	0.28 µg/mL (≈ 0.303 µM)				
O=C(O)c1cn(C2CC2)c2cc(N3CCNCC3)c(F)cc2c1=O [CIPROFLOXACIN]		0.32 µg/mL (≈ 0.966 µM)																		0.005 µg/mL (≈ 0.0151 µM)	
CC(C)c1ccc(C2(c3ccc(O)c(O)c3O)OC(=O)c3ccccc32)cc1[N+](=O)[O-] (configuration not stated)	133 µg/mL (≈ 316 µM)	> 200 µg/mL	45.7 µg/mL (≈ 108 µM)	> 200 µg/mL	> 200 µg/mL	100 µg/mL (≈ 237 µM)	88.7 µg/mL (≈ 210 µM)	> 200 µg/mL	> 200 µg/mL	> 200 µg/mL	> 200 µg/mL	> 200 µg/mL	163 µg/mL (≈ 386 µM)	> 200 µg/mL	98.9 µg/mL (≈ 235 µM)	83.3 µg/mL (≈ 198 µM)	21.3 µg/mL (≈ 50.6 µM)	42.3 µg/mL (≈ 100 µM)	> 200 µg/mL	> 200 µg/mL	
CC(C)c1ccc(C2(c3ccc(O)c(O)c3)OC(=O)c3ccccc32)cc1[N+](=O)[O-] (configuration not stated)	50 µg/mL (≈ 123 µM)	> 200 µg/mL	27.8 µg/mL (≈ 68.5 µM)	> 200 µg/mL	> 200 µg/mL	50 µg/mL (≈ 123 µM)	> 200 µg/mL	> 100 µg/mL	> 100 µg/mL	> 100 µg/mL	> 200 µg/mL	> 100 µg/mL	> 200 µg/mL	> 200 µg/mL	> 200 µg/mL	> 100 µg/mL	76.3 µg/mL (≈ 188 µM)	26.4 µg/mL (≈ 65 µM)	> 200 µg/mL	> 200 µg/mL	
CC(C)c1ccc(C2(c3ccc(O)c(O)c3)OC(=O)c3ccccc32)cc1 (configuration not stated)	12.5 µg/mL (≈ 34.7 µM)	> 200 µg/mL	6.81 µg/mL (≈ 18.9 µM)	53.2 µg/mL (≈ 148 µM)	> 200 µg/mL	18.8 µg/mL (≈ 52 µM)	15.5 µg/mL (≈ 42.9 µM)	> 200 µg/mL	> 200 µg/mL	> 200 µg/mL	137 µg/mL (≈ 381 µM)	> 200 µg/mL	61 µg/mL (≈ 169 µM)	> 200 µg/mL	172 µg/mL (≈ 478 µM)	200 µg/mL (≈ 555 µM)	45.8 µg/mL (≈ 127 µM)	4.96 µg/mL (≈ 13.8 µM)	> 200 µg/mL	> 200 µg/mL	
